Measurements from patent US9987299B2, “Methods of improving RNAi in well-differentiated airway epithelia” (University of Iowa Research Foundation, priority 2014, dated 2018).

Tests used:
[1] = test system: CFTR channel activity; assay: Transepithelial short-circuit current and conductance in HAE; type: cell-based, human; conditions: PAF treated and CFTR DsiRNA transduced cells
[2] = test system: CFTR protein; assay: CFTR protein levels, immunoprecipitation and immunoblot with densitometry in HAE; type: cell-based, human
Method: (§1) FIG. 4. […] Alternatively, spiperone was applied apically and basolaterally to well-differentiated HAE for 6 hours, and then removed by rinsing before incubation for 4 hours with CFTR-targeting or NC1 DsiRNAs complexed with Transductin. In both cases, 24 hours after transfection, and RNA levels quantified by RT-qPCR. (b) A representative immunoblot from similarly treated wells, but cells were lysed and proteins visualized after immunoprecipitation with anti-CFTR antibody. Alpha-tubulin was used as a loading control. (c) Densitometry readings of immunoblots with results normalized to NC1 treated samples. In all cases, data are from 3 biological replicates and are mean±SD. ***p<0.001, **p<0.01 (Student's t-test).
HAE were rinsed with PBS and lysed in RIPA buffer (1% NP-40, 0.5% sodium deoxycholate, 0.1% SDS, 50 mM Tris, protease inhibitors [complete; mini, EDTA-free; Roche Biochemicals, Indianapolis, Ind.]) for 30 minutes at 4° C. The lysate were centrifuged in a table top centrifuge at 14,000 rpm for 20 minutes at 4° C. The supernatant was quantified by BCA protein assay kit (Pierce, Rockford, Ill.). Thirty micrograms of protein per lane was separated on a 10% Tris-HCL Criterion precast gel (Bio-Rad, Hercules, Calif.) for western blot analysis. The protein was transferred to Polyvinylidene difluoride membrane and then was probed with goat anti-RSV antibody purchased from Meridian Life Sciences (Memphis, Tenn.). The membrane was imaged, and then stripped with Restore Western Blot Stripping Buffer (Thermo Scientific, Lafayette, Colo.) for 15 minutes. The membrane was rinsed with Tris-buffered saline-Tween (TBS-T) and blocked in 5% bovine serum albumin (Research Products International Corp, Mt. Prospect, Ill.). The membrane was then reprobed with α-tubulin (Sigma-Aldrich).

[3] = test system: HAE; assay: DIG-labeled DsiRNA entry and uptake into HAE (confocal imaging); type: cell-based, human; conditions: PAF-treated HAE, 1 hour after transduction with Transductin, compared with control HAE
Method: FIG. 2. PAF treatment enhances DsiRNA entry and uptake into cells. […] Blue, nuclei; green, DIG-labeled oligo. The images on the right and the left are from different fields.
The primary human airway epithelia grown at the air-liquid interface were transfected with the DIG-labeled DsiRNA at a concentration of 250 nM after complexing with Transductin. The transfection mixture was left on the apical surface for 1 h. At the end of this period, the cells were fixed in 2% formaldehyde, permeabilized in 0.2% Triton-x-100 and blocked in 1% BSA for 1 h. The cells were then stained with mouse antibody to DIG (Roche Biochemicals, Indianapolis, Ind.) for 1 h, followed by Alexa 488 labeled goat anti-mouse secondary antibody for 1 h, and then Alexa 488 labeled rabbit anti-mouse tertiary antibody (Life Technologies, Carlsbad, Calif.). In some cases an Alexa 564 goat anti-mouse secondary antibody was used. The cells were finally stained with nuclear stain, ToPro 3 for 10 minutes. The filter, containing the cells, was removed from the culture insert by cutting the edges with razor blade, and mounted on a slide with Vectashield (Vector Laboratories Inc, Burlingame, Calif.). The cells were visualized by confocal microscopy (Bio-Rad Radience 2100MP Multiphoton/Confocal Microscope, Bio-Rad, Hercules, Calif.).

[4] = test system: RSV N and P protein; assay: RSV protein immunoblot in infected HAE; type: cell-based, Respiratory Syncytial Virus; conditions: PAF with RSV N DsiRNA; immunoblot 48 hours after infection
From the text: FIG. 6. […] HAE was either treated or untreated with PAF in concurrence with RSV N DsiRNA. Six hours later the cells were infected with RSV at an MOI of 1. Forty eight hours later, the cell washings from the apical surface was collected and assayed for viral titer (a). The cells were lysed and the proteins visualized after immunoprecipitation with anti-RSV antibodies (b) and the bands quantified by densitometry (c). Data are mean±SD from the results three different experiments, each using a different donor. ***p<0.001 (Student's t-test).
RSV infection of HAE for both for immunoblot and viral titer was done at an MOI of 1. The virus was thawed at 37° C. and diluted in MEM (0% FCS) to a volume of 70 μl (1MOI)/well. The cells in Millicell filters were rinsed with the same media once and the virus applied to the apical surface. The plate was incubated at 37° C. for a period of 2 hours. After the incubation period, the virus inoculum was rinsed with MEM three times to remove any traces of the virus. The plates were then incubated at 37° C. until used for the assay.
HAE were rinsed with PBS and lysed in RIPA buffer (1% NP-40, 0.5% sodium deoxycholate, 0.1% SDS, 50 mM Tris, protease inhibitors [complete; mini, EDTA-free; Roche Biochemicals, Indianapolis, Ind.]) for 30 minutes at 4° C. […] The supernatant was quantified by BCA protein assay kit (Pierce, Rockford, Ill.). […]

[5] = test system: Human CFTR mRNA; assay: CFTR mRNA silencing by CFTR DsiRNA-Transductin in well-differentiated HAE (RT-qPCR); type: cell-based; conditions: CFTR DsiRNA with simultaneous PAF treatment or spiperone pre-treatment
Method: as §1
For well-differentiated airway epithelia, transfection was performed mostly according to the manufacturer's protocol. […]
Total RNA was isolated using SV96 RNA isolation kit (Promega, Madison, Wis.), according to manufacturer's protocol. […] One-fifteenth of the cDNA was then amplified and analyzed by using the 5′-nuclease assay in a 7900 Real Time PCR System (Applied Biosystems, Foster city, CA) using primer-probe pairs reaction buffer and Immolase DNA polymerase (Bioline, Taunton, Mass.). […] Absolute quantification of an mRNA target sequence within an unknown sample was determined by reference to a standard curve. […]

## platelet activating factor [PAF]
[1]
  cAMP-activated changes in transepithelial current and conductance: significantly reduced
[2]; PAF or spiperone and CFTR DsiRNA-Transductin, immunoprecipitation, western blot
  CFTR protein levels compared to controls: reduced CFTR protein levels
[2]; densitometry, normalized to NC1 treated samples
  fully glycosylated CFTR band C: significantly decreased
[3]
  amount of internalized DIG-labeled DsiRNA: substantial increase in the amount of internalized label
[4]
  RSV N and P protein abundance compared to untreated control cells: reduced
[5]
  silencing of CFTR mRNA levels: approximately 30%
